Measured values reported in patent US6855687B2 (The Board of Regents The University of Texas System, priority 2000, dated 2005).
Read-outs that look alike come from different tables or passages of the source.

Biological target: thrombin receptor
Assay: Specific binding of 125I thrombin to rat chondrocytes (Scatchard analysis)
Protocol: Primary cultures of rat articular chondrocytes were isolated and prepared for in vitro analysis using established methods (see Kuettner, K E., et.al., J. Cell Biology 93: 743-750, 1982). Briefly, cartilage pieces were dissected from the shoulder of rats and the pieces were digested with trypsin for one hour and with collagenase for three hours in tissue culture medium (DMEM) at 37 C. with stirring. The cells were plated in flasks at high density (50,000 cells/cm sq.) and were culture in DMEM containing antibiotics an ascorbic acid at 37° C. in an atmosphere of 5% CO2.

## thrombin
Scatchard analysis, 125I thrombin, three separate experiments, read-out: affinity of very high affinity binding sites
  Kd: 0.1 nM
Summary statement of Example 1, read-out: apparent affinity (3000 sites)
  Kd: ~0.1 nM
